Data: US20230085307A1, “PYRIDAZINONE COMPOUND AND HERBICIDE” (NISSAN CHEMICAL CORPORATION, priority 2019, published 2023)

Experiments:
late watergrass [1] = experiment: Test Example 1: herbicidal activity, application before weed generation under submerged conditions (Table 16, symbol A); type: in vivo, late watergrass (Echinochloa oryzicola)
Summary of the method: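 Emulsion formulation, water-diluted to set dose, was put onto the flooded surface (4 cm depth, alluvial soil) the same day weeds were sown and 2.5-leaf rice transplanted. After 3 weeks at 25-30 °C under glass, each species was rated 0 (≤5% kill) to 5 (≥90% kill).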

late watergrass [2] = experiment: Test Example 2: herbicidal activity, application during weed generation under submerged conditions (Table 17, symbol A); type: in vivo, late watergrass (Echinochloa oryzicola); conditions: application during weed generation, submerged conditions
Summary of the method: (§1)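 3-wk visual-criteria score after one water-surface dose. Emulsion formulation, water-diluted to set rate; applied at 1–2 leaf stage; alluvial soil, 4 cm standing water; seeds co-sown; greenhouse 25–30° C.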

oval-leafed pondweed = experiment: Test Example 2: herbicidal activity, application during weed generation under submerged conditions (Table 17, symbol C); type: in vivo, oval-leafed pondweed (Monochoria vaginalis); conditions: application during weed generation, submerged conditions
Summary of the method: as §1

barnyard grass [3] = experiment: Test Example 3: herbicidal effect by foliage application, Wagner pot (Table 18, symbol H); type: in vivo, barnyard grass (Echinochloa crus-galli)
Summary of the method: (§2)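 Plants were sown in alluvial soil held under 0.1–0.5 cm standing water and grown 14 days in a greenhouse at 25–30 °C. An emulsifiable formulation, water-diluted to the set dose, was then sprayed onto the foliage, and effects were scored three weeks later using previously defined criteria.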

Chinese sprangletop = experiment: Test Example 3: herbicidal effect by foliage application, Wagner pot (Table 18, symbol D); type: in vivo, chinese sprangletop (Leptochloa chinensis)
Summary of the method: as §2

green foxtail [4] = experiment: Test Example 4: herbicidal effect by soil treatment (Table 19, symbol G); type: in vivo, green foxtail (Setaria viridis)
Summary of the method: (§3)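 Step 1: sow seeds in sterilized diluvial soil, cover ~1.5 cm. Step 2: spray diluted emulsion onto soil surface at predetermined rate. Step 3: greenhouse, 25–30° C, three weeks. Step 4: grade effect on each plant by earlier criteria.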

windgrass [5] = experiment: Test Example 4: herbicidal effect by soil treatment (Table 19, symbol L); type: in vivo, windgrass (Apera spica-venti)
Summary of the method: as §3

velvetleaf [6] = experiment: Test Example 4: herbicidal effect by soil treatment (Table 19, symbol M); type: in vivo, velvetleaf (Abutilon theophrasti)
Summary of the method: as §3

redroot pigweed = experiment: Test Example 4: herbicidal effect by soil treatment (Table 19, symbol N); type: in vivo, redroot pigweed (Amaranthus retroflexus)
Summary of the method: as §3

green foxtail [7] = experiment: Test Example 5: herbicidal effect by foliage application, plastic box (Table 20, symbol G); type: in vivo, green foxtail (Setaria viridis); conditions: foliage application, three weeks after application
Summary of the method: (§4)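 Foliar spray test: emulsion formulation diluted in water to a set application rate, sprayed onto 14-day-old plants raised in diluvial soil at 25° C to 30° C under glass. Both herbicidal effect and crop effect rated visually three weeks later.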

barnyard grass [8] = experiment: Test Example 5: herbicidal effect by foliage application, plastic box (Table 20, symbol H); type: in vivo, barnyard grass (Echinochloa crus-galli); conditions: foliage application, three weeks after application
Summary of the method: as §4

wild oat = experiment: Test Example 5: herbicidal effect by foliage application, plastic box (Table 20, symbol I); type: in vivo, wild oat (Avena fatua); conditions: foliage application, three weeks after application
Summary of the method: as §4

windgrass [9] = experiment: Test Example 5: herbicidal effect by foliage application, plastic box (Table 20, symbol L); type: in vivo, windgrass (Apera spica-venti); conditions: foliage application, three weeks after application
Summary of the method: as §4

velvetleaf [10] = experiment: Test Example 5: herbicidal effect by foliage application, plastic box (Table 20, symbol M); type: in vivo, velvetleaf (Abutilon theophrasti); conditions: foliage application, three weeks after application
Summary of the method: as §4

lambsquarters = experiment: Test Example 5: herbicidal effect by foliage application, plastic box (Table 20, symbol O); type: in vivo, lambsquarters (Chenopodium album); conditions: foliage application, three weeks after application
Summary of the method: as §4

[11] = amount of applied herbicide 390 g/ha
[12] = amount of applied herbicide 320 g/ha

Compound	Herbicidal effect, A: late watergrass (late watergrass [1]; [12])	herbicidal effect rating, A: late watergrass (late watergrass [2]; AAH 320 g/ha)	herbicidal effect rating, C: oval-leafed pondweed (oval-leafed pondweed; AAH 320 g/ha)	Herbicidal effect on H (barnyard grass), foliage application (barnyard grass [3]; [12])	Herbicidal effect on D (Chinese sprangletop), foliage application (Chinese sprangletop; [12])	G: green foxtail, herbicidal effect grade (green foxtail [4]; [12])	L: windgrass, herbicidal effect grade (windgrass [5]; [12])	M: velvetleaf, herbicidal effect grade (velvetleaf [6]; [12])	N: redroot pigweed, herbicidal effect grade (redroot pigweed; [12])	herbicidal effect on green foxtail (G) (green foxtail [7]; 320 g/ha)	herbicidal effect on barnyard grass (H) (barnyard grass [8]; 320 g/ha)	herbicidal effect on wild oat (I) (wild oat; 320 g/ha)	herbicidal effect on windgrass (L) (windgrass [9]; 320 g/ha)	herbicidal effect on velvetleaf (M) (velvetleaf [10]; 320 g/ha)	herbicidal effect on lambsquarters (O) (lambsquarters; 320 g/ha)	other results
CCCC(=O)Oc1c(C)nn(C)c(=O)c1-c1c(-c2ccc(F)cc2)oc2ccc(C)cc12 [9-005]	–	–	–	–	–	–	–	–	–	–	–	–	–	–	–	Herbicidal effect, A: late watergrass (late watergrass [1]; [11]): 5 (Herbicidal rate of 90% or more (almost completely withered)); herbicidal effect rating, A: late watergrass (late watergrass [2]; AAH 390 g/ha): 0 (Herbicidal rate of 5% or less (almost no effect)); herbicidal effect rating, C: oval-leafed pondweed (oval-leafed pondweed; AAH 390 g/ha): 3 (Herbicidal rate of 40% or more and less than 70%); Herbicidal effect on H (barnyard grass), foliage application (barnyard grass [3]; [11]): 3 (Herbicidal rate of 40% or more and less than 70%); Herbicidal effect on D (Chinese sprangletop), foliage application (Chinese sprangletop; [11]): 0 (Herbicidal rate of 5% or less (almost no effect)); G: green foxtail, herbicidal effect grade (green foxtail [4]; [11]): 0 (Herbicidal rate of 5% or less (almost no effect)); L: windgrass, herbicidal effect grade (windgrass [5]; [11]): 0 (Herbicidal rate of 5% or less (almost no effect)); M: velvetleaf, herbicidal effect grade (velvetleaf [6]; [11]): 0 (Herbicidal rate of 5% or less (almost no effect)); N: redroot pigweed, herbicidal effect grade (redroot pigweed; [11]): 3 (Herbicidal rate of 40% or more and less than 70%); herbicidal effect on green foxtail (G) (green foxtail [7]; 390 g/ha): 0 (Herbicidal rate of 5% or less (almost no effect)); herbicidal effect on barnyard grass (H) (barnyard grass [8]; 390 g/ha): 0 (Herbicidal rate of 5% or less (almost no effect)); herbicidal effect on wild oat (I) (wild oat; 390 g/ha): 0 (Herbicidal rate of 5% or less (almost no effect)); herbicidal effect on windgrass (L) (windgrass [9]; 390 g/ha): 0 (Herbicidal rate of 5% or less (almost no effect)); herbicidal effect on velvetleaf (M) (velvetleaf [10]; 390 g/ha): 5 (Herbicidal rate of 90% or more (almost completely withered)); herbicidal effect on lambsquarters (O) (lambsquarters; 390 g/ha): 3 (Herbicidal rate of 40% or more and less than 70%)
COc1ccc(-c2oc3ccc(C)cc3c2-c2c(O)c(C)nn(C)c2=O)cc1 [9-007]	5 (Herbicidal rate of 90% or more (almost completely withered))	4 (Herbicidal rate of 70% or more and less than 90%)	5 (Herbicidal rate of 90% or more (almost completely withered))	4 (Herbicidal rate of 70% or more and less than 90%)	1 (Herbicidal rate of 5% or more and less than 20%)	3 (Herbicidal rate of 40% or more and less than 70%)	0 (Herbicidal rate of 5% or less (almost no effect))	3 (Herbicidal rate of 40% or more and less than 70%)	5 (Herbicidal rate of 90% or more (almost completely withered))	4 (Herbicidal rate of 70% or more and less than 90%)	4 (Herbicidal rate of 70% or more and less than 90%)	4 (Herbicidal rate of 70% or more and less than 90%)	4 (Herbicidal rate of 70% or more and less than 90%)	5 (Herbicidal rate of 90% or more (almost completely withered))	5 (Herbicidal rate of 90% or more (almost completely withered))	–
CCCC(=O)Oc1c(C)nn(C)c(=O)c1-c1c(-c2ccc(OC)cc2)oc2ccc(C)cc12 [9-008]	5 (Herbicidal rate of 90% or more (almost completely withered))	1 (Herbicidal rate of 5% or more and less than 20%)	5 (Herbicidal rate of 90% or more (almost completely withered))	2 (Herbicidal rate of 20% or more and less than 40%)	3 (Herbicidal rate of 40% or more and less than 70%)	2 (Herbicidal rate of 20% or more and less than 40%)	0 (Herbicidal rate of 5% or less (almost no effect))	0 (Herbicidal rate of 5% or less (almost no effect))	5 (Herbicidal rate of 90% or more (almost completely withered))	3 (Herbicidal rate of 40% or more and less than 70%)	3 (Herbicidal rate of 40% or more and less than 70%)	3 (Herbicidal rate of 40% or more and less than 70%)	0 (Herbicidal rate of 5% or less (almost no effect))	5 (Herbicidal rate of 90% or more (almost completely withered))	4 (Herbicidal rate of 70% or more and less than 90%)	–
COc1ccccc1-c1sc2c(Cl)c(OC)ccc2c1-c1c(O)c(C)nn(C)c1=O [Compound No. 7-001, 4-(7-chloro-6-methoxy-2-(2-methoxyphenyl)benzo[b]thiophen-3-yl)-5-hydroxy-2,6-dimeth ylpyridazin-3-(2H)-one]	3 (Herbicidal rate of 40% or more and less than 70%)	3 (Herbicidal rate of 40% or more and less than 70%)	3 (Herbicidal rate of 40% or more and less than 70%)	5 (Herbicidal rate of 90% or more (almost completely withered))	1 (Herbicidal rate of 5% or more and less than 20%)	0 (Herbicidal rate of 5% or less (almost no effect))	0 (Herbicidal rate of 5% or less (almost no effect))	3 (Herbicidal rate of 40% or more and less than 70%)	5 (Herbicidal rate of 90% or more (almost completely withered))	4 (Herbicidal rate of 70% or more and less than 90%)	5 (Herbicidal rate of 90% or more (almost completely withered))	0 (Herbicidal rate of 5% or less (almost no effect))	5 (Herbicidal rate of 90% or more (almost completely withered))	5 (Herbicidal rate of 90% or more (almost completely withered))	4 (Herbicidal rate of 70% or more and less than 90%)	–
